Assays:
BRAG2 (BRAG2^Sec7PH) = target: T1, BRAG2 (BRAG2^Sec7PH) (Homo sapiens, UniProt Q6DN90); assay: Nucleotide exchange kinetics on liposomes, activation of myristoylated Arf1; format: biochemical
T1 construct: human BRAG2^Sec7 (390-594) and BRAG2^Sec7PH (390-811); made in house
Method: The effect of Bragsin1 on the GEF efficiency of representative human ArfGEFs was evaluated by fluorescence kinetics using highly purified recombinant Arf GTPases and ArfGEFs. In a first series of assays, the Sec7 domains of BIG1, a Golgi ArfGEF, and of ARNO, EFA6a and BRAG2, which function at the plasma membrane, were used. When tested in solution, Bragsin1 had no effect on the activation of Arf1 by any of these Sec7 domains (FIGS. 2a and 14). Separately, we reconstituted the activation of myristoylated Arf1 by the same ArfGEFs on liposomes using ArfGEF constructs that contain a membrane-binding domain (DCB-HUS domain for BIG1, PH domains for the other GEFs). […] BRAG2 activates several Arf isoforms, including the plasma membrane-located Arf6 isoform. […] Bragsin1 and Bragsin2 have the same IC50 towards BRAG2 ([…]) according to dose-response analysis, confirming that Bragsin1 and Bragsin2 can be used interchangeably (FIG. 2d). The specific inhibition of BRAG2 by Bragsin in vitro predicts that BRAG2 silencing by siRNA should yield the same phenotype as treatment by the small molecule. Silencing of BRAG2 induced the redistribution of TGN46 into tubular or punctate structures, which phenocopied the effects induced by Bragsin (FIGS. 2e, 17 and 18). […] Silencing of ARNO, which is located at the plasma membrane, had no effect on TGN46 distribution. Overexpression of BRAG2-mCherry rescued the dispersion of the TGN46 structure induced by Bragsin, which is consistent with the silencing experiments (FIG. 2f). Bragsin is a specific inhibitor of the ArfGEF BRAG2 in vitro and in cells according to these experiments. These oexperiments identify a mechanism of inhibition that requires the membrane to manifests itself.
Bovine Δ17Arf1 and human Δ13Arf6, full-length myristoylated Arf1 and Arf6, human BRAG2^Sec7 (390-594) and BRAG2^Sec7PH (390-811), human EFA6^Sec7 (527-727) and EFA6^Sec7PHCt (527-1024), ARNO^Sec7 (50-256), BIG1^Sec7 (691-889), BIG1^DcbHusSec7 (2-888) and ARNO^Sec7PH (50-399) were expressed and purified as in (Benabdi, S. et al. Family-wide Analysis of the Inhibition of Arf Guanine Nucleotide Exchange Factors with Small Molecules: Evidence of Unique Inhibitory Profiles. Biochemistry 56, 5125-5133 (2017)) and references therein. BRAG2^Sec7PH mutants were purified as the wild type protein. Purification of human full-length Rac1 carrying a 6xHis tag in C-terminus and human TRIO^DH1PH1 (1232-1550) was described in (Peurois, F. et al. Characterization of the activation of small GTPases by their GEFs on membranes using artificial membrane tethering. Biochem J 474, 1259-1272 (2017)).
Lipids (of natural origin) were from Avanti Polar Lipids, except NBD-PE from Sigma. Liposomes were prepared as described in (Aizel, K. et al. Integrated conformational and lipid-sensing regulation of endosomal ArfGEF BRAG2. PLOS Biol 11, e1001652 (2013)) and extruded at 0.2 μm. For the Arf GEF specificity studies, liposomes contained 48% phosphatidylcholine (PC), 20% phosphatidylethanolamine (PE), 30% phosphatidylserine (PS) and 2% phosphatidylinositol-4,5-bisphosphate (PIP2). For Rac activation assay, liposomes contained 43% PC, 20% PE, 10% PS, 20% cholesterol, 2% PIP2, 5% NiNTA lipids and 0.2% NBD-PE. To exclude aggregation or disruption of the liposomes, their size distribution was controlled before and after experiments by dynamic light scattering as described in (Benabdi, S. et al. Biochemistry 56, 5125-5133 (2017)). Dose-response and flotation assays were carried out with liposomes containing 37.9% PC, 20% PE, 20% PS, 2% PIP2, 20% cholesterol and 0.1% NBD-PE. Flotation assays were carried out as in 18.
Nucleotide exchange kinetics were monitored by tryptophan fluorescence with excitation/emission wavelengths of 292/340 nm using a Cary Eclipse fluorimeter (Varian) at 37° C. and under continuous stirring as described in ^50,51. […]

[1] = system: TGN46 (trans-Golgi network marker) in Hela cells; assay: Immunostaining and confocal microscopy of Hela cells; format: cell-based, human; details: 50 μM

T1 sequence (Q6DN90 512-933): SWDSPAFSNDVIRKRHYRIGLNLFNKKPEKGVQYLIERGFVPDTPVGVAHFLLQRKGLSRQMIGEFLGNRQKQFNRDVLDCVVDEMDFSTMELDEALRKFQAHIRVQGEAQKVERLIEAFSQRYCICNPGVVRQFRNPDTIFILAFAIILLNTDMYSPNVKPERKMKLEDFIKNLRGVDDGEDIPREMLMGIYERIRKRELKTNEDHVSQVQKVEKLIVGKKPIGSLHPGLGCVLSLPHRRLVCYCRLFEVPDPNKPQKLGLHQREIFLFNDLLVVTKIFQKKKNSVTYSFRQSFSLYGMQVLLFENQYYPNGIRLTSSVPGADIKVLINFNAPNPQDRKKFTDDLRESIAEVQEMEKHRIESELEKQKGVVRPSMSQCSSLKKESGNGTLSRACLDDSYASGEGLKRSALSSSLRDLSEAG

Inhibition of BRAG2 in the presence of liposomes (BRAG2 (BRAG2^Sec7PH); 50 μM compound vs DMSO, myristoylated Arf1, liposomes) | Biological activity of hydrated derivative (BRAG2 (BRAG2^Sec7PH); derivative formed from Bragsin1 in aqueous solution) | SMILES | Dispersion of TGN46 marker [1]
strongly inhibits |  | COc1cc(OC)c2oc(C(F)(F)F)cc(=O)c2c1[N+](=O)[O-] [Bragsin3, 6,8-dimethoxy-5-nitro-2-(trifluoromethyl)-4H-chromen-4-one] | disperses
 |  | COc1ccc2oc(C(F)(F)F)cc(=O)c2c1 [Compound 3, 6-methoxy-2-(trifluoromethyl)-4H-chromen-4-one] | not capable to disperse
 | biologically inactive | Cc1ccc2c(c1[N+](=O)[O-])C(=O)CC(O)(C(F)(F)F)O2 (stereo not drawn) [Compound 13, 2-hydroxy-6-methyl-5-nitro-2-(trifluoromethyl)chroman-4-one] | 
 |  | COc1ccc2oc(C(F)(F)F)cc(=O)c2c1C(=O)O [Compound 6, 6-methoxy-4-oxo-2-(trifluoromethyl)-4H-chromene-5-carboxylic acid] | not capable to disperse
 |  | COc1ccc2oc(C(F)(F)F)cc(=O)c2c1C=O [Compound 5, 6-methoxy-4-oxo-2-(trifluoromethyl)-4H-chromene-5-carbaldehyde] | less effect

Source: patent publication US12152012B2, “BRAG2 inhibitors and applications thereof” (CENTRE NATIONAL DE LA RECHERCHE SCIENTIFIQUE, priority 2018, dated 2024)
